From US9809625B2, “Immunomodulators” (BRISTOL-MYERS SQUIBB COMPANY, priority 2015, dated 2017)
Bridge positions count the residues as written; N and C are the ends. Square brackets hold non-standard residues; d marks the D form. Peptide text beside a SMILES is read from it. * marks the point of attachment. ξ: configuration not given here. Hyp = O=C(O)[C@@H]1C[C@@H](O)CN1; ξW = NC(Cc1c[nH]c2ccccc12)C(=O)O; NMeNle = CCCC[C@H](NC)C(=O)O; NH(CH2)3NMe2 = CN(C)CCCN*; NMeA = CN[C@@H](C)C(=O)O; Dap = NC[C@H](N)C(=O)O; NH(propargyl) = C#CCN*; X1 = CN(C)C1CCN(*)CC1; X10 = c1ccc(OCCN*)cc1; X8 = c1ccc(SCCN*)cc1; NHCH2cPr = C1CC1CN*; X11 = OC1CCC(N*)CC1; X2 = c1cn(CCCN*)cn1; X9 = OCCN(CCO)CCCN*; NHCH2CH2OH = OCCN*; NHAllyl = C=CCN*; NHBu = CCCCN*

Target: T1, PD-1-Ig binding to PD-L1-TVMV-His (PD-L1-His) (Homo sapiens, UniProt Q9NZQ7)
T1 construct: hPDL1(19-239)-TVMV-His; TVMV protease cleavage site (C); made in house; host or cells: HEK293T
Assay: PD-1/PD-L1 Homogenous Time-Resolved Fluorescence (HTRF) binding assay
Conditions: PD-1-Ig (20 nM)/PD-L1-His (10 nM), range classes
From the text: Methods for Testing the Ability of Macrocyclic Peptides to Compete for the Binding of PD-1 to PD-L1 Using Homogenous Time-Resolved Fluorescence (HTRF) Binding Assays
The ability of the macrocyclic peptides of the present disclosure to bind to PD-L1 was investigated using a PD-1/PD-L1 Homogenous Time-Resolved Fluorescence (HTRF) binding assay.
Homogenous Time-Resolved Fluorescence (HTRF) Assays of Binding of Soluble PD-1 to Soluble PD-L1. Soluble PD-1 and soluble PD-L1 refers to proteins with carboxyl-end truncations that remove the transmembrane-spanning regions and are fused to heterologous sequences, specifically the Fc portion of the human immunoglobuling G sequence (Ig) or the hexahistidine epitope tag (His). All binding studies were performed in an HTRF assay buffer consisting of dPBS supplemented with 0.1% (w/v) bovine serum albumin and 0.05% (v/v) Tween-20. For the PD-1-Ig/PD-L1-His binding assay, inhibitors were pre-incubated with PD-L1-His (10 nM final) for 15 m in 4 μl of assay buffer, followed by addition of PD-1-Ig (20 nM final) in 1 μl of assay buffer and further incubation for 15 m. PD-L1 fusion proteins from either human, cynomologous macaques, mouse, or other species were used. HTRF detection was achieved using europium crypate-labeled anti-Ig monoclonal antibody (1 nM final) and allophycocyanin (APC) labeled anti-His monoclonal antibody (20 nM final). Antibodies were diluted in HTRF detection buffer and 5 μl was dispensed on top of binding reaction. The reaction was allowed to equilibrate for 30 minutes and signal (665 nm/620 nm ratio) was obtained using an EnVision fluorometer. Additional binding assays were established between PD-1-Ig/PD-L2-His (20 and 5 nM, respectively), CD80-His/PD-L1-Ig (100 and 10 nM, respectively) and CD80-His/CTLA4-Ig (10 and 5 nM, respectively). Binding/competition studies between biotinylated Compound No. 71 and human PD-L1-His were performed as follows. Macrocyclic peptide inhibitors were pre-incubated with PD-L1-His (10 nM final) for 60 minutes in 4 μl of assay buffer followed by addition of biotinylated Compound No. 71 (0.5 nM final) in 1 μl of assay buffer. Binding was allowed to equilibrate for 30 minutes followed by addition of europium crypated labeled Streptavidin (2.5 pM final) and APC-labeled anti-His (20 nM final) in 5 μl of HTRF buffer. The reaction was allowed to equilibrate for 30 m and signal (665 nm/620 nm ratio) was obtained using an EnVision fluorometer.
Recombinant Proteins. Carboxyl-truncated human PD-1 (amino acids 25-167) with a C-terminal human Ig epitope tag [hPD-1 (25-167)-3S-IG] and human PD-L1 (amino acids 18-239) with a C-terminal His epitope tag [hPD-L1(19-239)-tobacco vein mottling virus protease cleavage site (TVMV)-His] were expressed in HEK293T cells and purified sequentially by recombinant Protein A affinity chromatography and size exclusion chromatography. Human PD-L2-His (Sino Biologicals), CD80-His (Sino Biologicals), CTLA4-Ig (RnD Systems) were all obtained through commercial sources.

T1 sequence (Q9NZQ7 with tags, fused parts or gaps): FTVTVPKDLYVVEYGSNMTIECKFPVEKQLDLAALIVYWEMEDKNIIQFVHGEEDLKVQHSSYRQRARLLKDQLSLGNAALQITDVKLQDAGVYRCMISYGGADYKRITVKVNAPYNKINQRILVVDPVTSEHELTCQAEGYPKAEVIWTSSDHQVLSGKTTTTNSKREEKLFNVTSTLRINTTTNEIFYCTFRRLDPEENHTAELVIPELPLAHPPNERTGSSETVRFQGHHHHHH

Row | Structure (SMILES) | IC50 [µM]
1 | CCCC[C@H]1C(=O)N(C)[C@@H](CCCC)C(=O)N[C@@H](CC(C)C)C(=O)N[C@H](C(=O)NCC(=O)NCCO)CSCC(=O)N[C@@H](Cc2ccc(O)cc2)C(=O)N(C)[C@@H](C)C(=O)N[C@@H](CC(N)=O)C(=O)N2CCC[C@H]2C(=O)N[C@@H](CN)C(=O)N[C@@H](CC(C)C)C(=O)N2C[C@H](O)C[C@H]2C(=O)N[C@@H](Cc2c[nH]c3ccccc23)C(=O)NCC(=O)NC(Cc2c[nH]c3ccccc23)C(=O)N1C (stereo partly drawn) [Example 13095] ({CH2CO}-Y[NMeA]NP[Dap]L[Hyp]WG[ξW][NMeNle][NMeNle]LCG-NHCH2CH2OH; thioether N-14) | 0.01 to 0.06
2 | C#CCNC(=O)CNC(=O)[C@@H]1CSCC(=O)N[C@@H](Cc2ccc(O)cc2)C(=O)N(C)[C@@H](C)C(=O)N[C@@H](CC(N)=O)C(=O)N2CCC[C@H]2C(=O)N[C@@H](CN)C(=O)N[C@@H](CC(C)C)C(=O)N2C[C@H](O)C[C@H]2C(=O)N[C@@H](Cc2c[nH]c3ccccc23)C(=O)NCC(=O)NC(Cc2c[nH]c3ccccc23)C(=O)N(C)[C@@H](CCCC)C(=O)N(C)[C@@H](CCCC)C(=O)N[C@@H](CC(C)C)C(=O)N1 (stereo partly drawn) [Example 13096] ({CH2CO}-Y[NMeA]NP[Dap]L[Hyp]WG[ξW][NMeNle][NMeNle]LCG-{NH(propargyl)}; thioether N-14) | 0.01 to 0.06
3 | C=CCNC(=O)CNC(=O)[C@@H]1CSCC(=O)N[C@@H](Cc2ccc(O)cc2)C(=O)N(C)[C@@H](C)C(=O)N[C@@H](CC(N)=O)C(=O)N2CCC[C@H]2C(=O)N[C@@H](CN)C(=O)N[C@@H](CC(C)C)C(=O)N2C[C@H](O)C[C@H]2C(=O)N[C@@H](Cc2c[nH]c3ccccc23)C(=O)NCC(=O)NC(Cc2c[nH]c3ccccc23)C(=O)N(C)[C@@H](CCCC)C(=O)N(C)[C@@H](CCCC)C(=O)N[C@@H](CC(C)C)C(=O)N1 (stereo partly drawn) [Example 13097] ({CH2CO}-Y[NMeA]NP[Dap]L[Hyp]WG[ξW][NMeNle][NMeNle]LCG-NHAllyl; thioether N-14) | 0.01 to 0.06
4 | CCCC[C@H]1C(=O)N(C)[C@@H](CCCC)C(=O)N[C@@H](CC(C)C)C(=O)N[C@H](C(=O)NCC(=O)NCCCN(C)C)CSCC(=O)N[C@@H](Cc2ccc(O)cc2)C(=O)N(C)[C@@H](C)C(=O)N[C@@H](CC(N)=O)C(=O)N2CCC[C@H]2C(=O)N[C@@H](CN)C(=O)N[C@@H](CC(C)C)C(=O)N2C[C@H](O)C[C@H]2C(=O)N[C@@H](Cc2c[nH]c3ccccc23)C(=O)NCC(=O)NC(Cc2c[nH]c3ccccc23)C(=O)N1C (stereo partly drawn) [Example 13098] ({CH2CO}-Y[NMeA]NP[Dap]L[Hyp]WG[ξW][NMeNle][NMeNle]LCG-{NH(CH2)3NMe2}; thioether N-14) | 0.01 to 0.06
5 | CCCC[C@H]1C(=O)N(C)[C@@H](CCCC)C(=O)N[C@@H](CC(C)C)C(=O)N[C@H](C(=O)NCC(=O)NCCCn2ccnc2)CSCC(=O)N[C@@H](Cc2ccc(O)cc2)C(=O)N(C)[C@@H](C)C(=O)N[C@@H](CC(N)=O)C(=O)N2CCC[C@H]2C(=O)N[C@@H](CN)C(=O)N[C@@H](CC(C)C)C(=O)N2C[C@H](O)C[C@H]2C(=O)N[C@@H](Cc2c[nH]c3ccccc23)C(=O)NCC(=O)NC(Cc2c[nH]c3ccccc23)C(=O)N1C (stereo partly drawn) [Example 13099] ({CH2CO}-Y[NMeA]NP[Dap]L[Hyp]WG[ξW][NMeNle][NMeNle]LCG-X2; thioether N-14) | 0.01 to 0.06
6 | CCCCNC(=O)CNC(=O)[C@@H]1CSCC(=O)N[C@@H](Cc2ccc(O)cc2)C(=O)N(C)[C@@H](C)C(=O)N[C@@H](CC(N)=O)C(=O)N2CCC[C@H]2C(=O)N[C@@H](CN)C(=O)N[C@@H](CC(C)C)C(=O)N2C[C@H](O)C[C@H]2C(=O)N[C@@H](Cc2c[nH]c3ccccc23)C(=O)NCC(=O)NC(Cc2c[nH]c3ccccc23)C(=O)N(C)[C@@H](CCCC)C(=O)N(C)[C@@H](CCCC)C(=O)N[C@@H](CC(C)C)C(=O)N1 (stereo partly drawn) [Example 13100] ({CH2CO}-Y[NMeA]NP[Dap]L[Hyp]WG[ξW][NMeNle][NMeNle]LCG-NHBu; thioether N-14) | 0.01 to 0.06
7 | CCCC[C@H]1C(=O)N(C)[C@@H](CCCC)C(=O)N[C@@H](CC(C)C)C(=O)N[C@H](C(=O)NCC(=O)NCCSc2ccccc2)CSCC(=O)N[C@@H](Cc2ccc(O)cc2)C(=O)N(C)[C@@H](C)C(=O)N[C@@H](CC(N)=O)C(=O)N2CCC[C@H]2C(=O)N[C@@H](CN)C(=O)N[C@@H](CC(C)C)C(=O)N2C[C@H](O)C[C@H]2C(=O)N[C@@H](Cc2c[nH]c3ccccc23)C(=O)NCC(=O)NC(Cc2c[nH]c3ccccc23)C(=O)N1C (stereo partly drawn) [Example 13101] ({CH2CO}-Y[NMeA]NP[Dap]L[Hyp]WG[ξW][NMeNle][NMeNle]LCG-X8; thioether N-14) | 0.01 to 0.06
8 | CCCC[C@H]1C(=O)N(C)[C@@H](CCCC)C(=O)N[C@@H](CC(C)C)C(=O)N[C@H](C(=O)NCC(=O)N2CCC(N(C)C)CC2)CSCC(=O)N[C@@H](Cc2ccc(O)cc2)C(=O)N(C)[C@@H](C)C(=O)N[C@@H](CC(N)=O)C(=O)N2CCC[C@H]2C(=O)N[C@@H](CN)C(=O)N[C@@H](CC(C)C)C(=O)N2C[C@H](O)C[C@H]2C(=O)N[C@@H](Cc2c[nH]c3ccccc23)C(=O)NCC(=O)NC(Cc2c[nH]c3ccccc23)C(=O)N1C (stereo partly drawn) [Example 13103] ({CH2CO}-Y[NMeA]NP[Dap]L[Hyp]WG[ξW][NMeNle][NMeNle]LCG-X1; thioether N-14) | 0.01 to 0.06
9 | CCCC[C@H]1C(=O)N(C)[C@@H](CCCC)C(=O)N[C@@H](CC(C)C)C(=O)N[C@H](C(=O)NCC(=O)NCC2CC2)CSCC(=O)N[C@@H](Cc2ccc(O)cc2)C(=O)N(C)[C@@H](C)C(=O)N[C@@H](CC(N)=O)C(=O)N2CCC[C@H]2C(=O)N[C@@H](CN)C(=O)N[C@@H](CC(C)C)C(=O)N2C[C@H](O)C[C@H]2C(=O)N[C@@H](Cc2c[nH]c3ccccc23)C(=O)NCC(=O)NC(Cc2c[nH]c3ccccc23)C(=O)N1C (stereo partly drawn) [Example 13104] ({CH2CO}-Y[NMeA]NP[Dap]L[Hyp]WG[ξW][NMeNle][NMeNle]LCG-NHCH2cPr; thioether N-14) | 0.01 to 0.06
10 | CCCC[C@H]1C(=O)N(C)[C@@H](CCCC)C(=O)N[C@@H](CC(C)C)C(=O)N[C@H](C(=O)NCC(=O)NC2CCC(O)CC2)CSCC(=O)N[C@@H](Cc2ccc(O)cc2)C(=O)N(C)[C@@H](C)C(=O)N[C@@H](CC(N)=O)C(=O)N2CCC[C@H]2C(=O)N[C@@H](CN)C(=O)N[C@@H](CC(C)C)C(=O)N2C[C@H](O)C[C@H]2C(=O)N[C@@H](Cc2c[nH]c3ccccc23)C(=O)NCC(=O)NC(Cc2c[nH]c3ccccc23)C(=O)N1C (stereo partly drawn) [Example 13106] ({CH2CO}-Y[NMeA]NP[Dap]L[Hyp]WG[ξW][NMeNle][NMeNle]LCG-X11; thioether N-14) | 0.01 to 0.06
11 | CCCC[C@H]1C(=O)N(C)[C@@H](CCCC)C(=O)N[C@@H](CC(C)C)C(=O)N[C@H](C(=O)NCC(=O)NCCCN(CCO)CCO)CSCC(=O)N[C@@H](Cc2ccc(O)cc2)C(=O)N(C)[C@@H](C)C(=O)N[C@@H](CC(N)=O)C(=O)N2CCC[C@H]2C(=O)N[C@@H](CN)C(=O)N[C@@H](CC(C)C)C(=O)N2C[C@H](O)C[C@H]2C(=O)N[C@@H](Cc2c[nH]c3ccccc23)C(=O)NCC(=O)N[C@@H](Cc2c[nH]c3ccccc23)C(=O)N1C [Example 13107] ({CH2CO}-Y[NMeA]NP[Dap]L[Hyp]WGW[NMeNle][NMeNle]LCG-X9; thioether N-14) | 0.01 to 0.06
12 | CCCC[C@H]1C(=O)N(C)[C@@H](CCCC)C(=O)N[C@@H](CC(C)C)C(=O)N[C@H](C(=O)NCC(=O)NCCOc2ccccc2)CSCC(=O)N[C@@H](Cc2ccc(O)cc2)C(=O)N(C)[C@@H](C)C(=O)N[C@@H](CC(N)=O)C(=O)N2CCC[C@H]2C(=O)N[C@@H](CN)C(=O)N[C@@H](CC(C)C)C(=O)N2C[C@H](O)C[C@H]2C(=O)N[C@@H](Cc2c[nH]c3ccccc23)C(=O)NCC(=O)N[C@@H](Cc2c[nH]c3ccccc23)C(=O)N1C [Example 13108] ({CH2CO}-Y[NMeA]NP[Dap]L[Hyp]WGW[NMeNle][NMeNle]LCG-X10; thioether N-14) | 0.01 to 0.06
